Measurements reported in US11419902B2, “Compositions comprising bacterial strains” (4D Pharma Research Limited, priority 2018, dated 2022).

What was measured:
[1] = system: GPR109a; experiment: GPR109a RNA expression in differentiated Caco-2 cells (qPCR); format: cell-based
[2] = system: HDAC; experiment: HDAC inhibition on HT-29 cell lysate; format: biochemical
Experimental: Pure cultures of bacteria were grown anaerobically in YCFA+ broth until they reached their stationary growth phase. Cultures were centrifuged at 5,000×g for 5 minutes and the cell-free supernatant (CFS) was filtered using a […] (Millipore, UK). 1 mL aliquots of the CFS were stored at −80° C. until use. Sodium butyrate, hexanoic and valeric acid were obtained from Sigma Aldrich (UK) and suspensions were prepared in YCFA+ broth.
To investigate which metabolites were responsible for the strain-induced HDAC inhibition, different concentrations of hexanoic acid, valeric acid and sodium butyrate were measured for their HDAC inhibition on whole HT-29 cells and on HT-29 cell lysate.

[3] = system: IL-8; experiment: IL-8 secretion by the HT29 cell line co-incubated with bacteria (ELISA); format: cell-based; conditions: differentiated HT29 cells, bacteria 10^7 CFU 2 hr, with THP1 conditioned media or alone
Experimental: HT29 cells were plated in 12 well plates at a density of 200,000 cells/well. Cells were being differentiated for 10 days (media change every 2 days). The day of the experiment cells were placed in the anaerobic hood and washed with anaerobic equilibrated HANKs solution. Then 900 ul of growth media (without FBS and antibiotics) was added to the cells. Bacteria cells were resuspended in of growth media (without FBS and antibiotics) and were then added at 10^7 CFU in total in 100 ul. Cells were co-incubated with bacteria for 2 hr in an anaerobic hood. Afterwards cells were washed in growth media without FBS but containing antibiotics. Cells were left to rest in 1 ml of THP1 condition media for 24 h. After 24 h incubation the supernatant was collected and spun down at 10,000 g for 3 min and 4° C. Samples were frozen at −80° C. until further use.
THP1 condition media: THp1 were seeded on T25 flask at density of 4×10^6/flask. Cells were treated in RPMI media (contain 2 mM L-glutamine without FBS) with 1 ug/ml LPS or LPS+5 mM ATP (ATP added 3 hours after LPS). Cells were left to rest for 24 hr. Thereafter Condition Media (CM) was collected by spinning down the cells at 250 g for 5 min and RT. Different CMs were used to treat HT29 Cells. A small aliquot was frozen at […] for ELISA. […]

[4] = system: MAP2; experiment: MAP2 expression in SH-SY5Y cells (qPCR, immunostaining, immunoblotting); format: cell-based; conditions: undifferentiated SH-SY5Y cells, 10% bacterial supernatant, vs untreated cells
Experimental: SH-SY5Y were plated in 10 cm petri dishes a density of 2×10^6 cells. After 24 h cells were treated in differentiation medium (growth medium containing 1% FBS without RA) with 10% bacteria supernatants or YCFA+, 10 uM RA, 200 uM hexanoic acid or 200 uM valproic acid, for 17 hrs. There after representative images were taken using phase contrast EVOS XL core microscope at 40×10.65 magnification. Cells were collected, and total RNA was isolated according to RNeasy mini kit protocol (Qiagen). cDNAs were made using the high capacity cDNA reverse transcription kit (Applied Biosystems). Gene expression was measured using qPCR. GAPDH was used as internal control. Fold change was calculated according to the 2^(−ΔΔct) method.
Cells were seeded onto 8-well chamber slides (Marienfeld Laboratory Glassware) at 5×10^4 cells/well overnight and were treated with 10% bacterial supernatant for 24 h. […]
SH-SY5Y cells cultured under the indicated conditions described above, treated with MRx0029 for 24 h and then lysed in RIPA buffer containing cocktail of protease inhibitors (Roche Diagnostics, UK). […] The blots were then incubated with the appropriate horseradish peroxidase (HRP)-conjugated secondary antibody, and proteins were detected by chemiluminescence detection kit (Pierce Biotechnology, Rockford, Ill.). […]

[5] = system: HT29 colorectal cancer cell line; experiment: Clonogenic survival of HT29 cell line; format: cell-based; conditions: HT29, relative to both negative controls (cell line only, and YCFA+ +DMSO)
Experimental: Cells were trypsinized and 200 cells/well were seeded in 12-well plates. After 48 h cells were treated with the appropriate drugs in absence (YCFA+) or presence of 10% bacterial supernatant and were re-fed every three days. On day 21 after seeding, cells were fixed in ice-cold methanol and stained with Crystal Violet blue. […] were counted and survival fraction was calculated as number of colonies divided by the number of plated cells (plating efficiency) of treated divided by the plating efficiency of control.
The effects of the following treatments were assessed on the HT29 colorectal cancer cell line (V600E oncogenic mutation in BRAF): (1) MRx0029; (2) Vemurafenib (VEMU) in YFCA+ medium; (3) VEMU and MRx0029; (4) Azacytidine-C (Aza-c) in YCFA+ medium; (5) Aza-c and MRx0029; (6) VEMU, Aza-c and MRx0029.

Megasphaera massiliensis MRx0029
expression of GPR109a RNA with PMA ([1]; PMA plus supernatant vs PMA alone (or PMA in YCFA+ medium)): greater expression of GPR109a RNA | expression of GPR109a ([1]; without PMA): increased expression of GPR109a | HDAC inhibition on HT-29 cell lysate [2]: strong HDAC inhibition | IL-8 secretion [3]: increased IL-8 secretion | expression of MAP2 [4]: significantly increased the expression of MAP2 | clonogenic survival [5]: decreased clonogenic survival
